Reference: US20230146675A1, “PYRIMIDO[5,4-d]PYRIMIDINE DERIVATIVES AS ENT INHIBITORS FOR THE TREATMENT OF CANCERS, AND COMBINATION THEREOF WITH ADENOSINE RECEPTOR ANTAGONISTS” (ITEOS BELGIUM SA, priority 2020, published 2023)
Like-named read-outs stand apart in the source and are kept apart here.

How the values were obtained:
[1] = biological target: T1, human ENT1 (Homo sapiens, UniProt Q99808); assay: Uridine transport inhibition assay (3H-uridine uptake, MDCKII-ENT1-LV cells); format: cell-based; settings: 3H-uridine (1 μM), 1 min at 25° C.
T1 sequence (Q99808 1-456): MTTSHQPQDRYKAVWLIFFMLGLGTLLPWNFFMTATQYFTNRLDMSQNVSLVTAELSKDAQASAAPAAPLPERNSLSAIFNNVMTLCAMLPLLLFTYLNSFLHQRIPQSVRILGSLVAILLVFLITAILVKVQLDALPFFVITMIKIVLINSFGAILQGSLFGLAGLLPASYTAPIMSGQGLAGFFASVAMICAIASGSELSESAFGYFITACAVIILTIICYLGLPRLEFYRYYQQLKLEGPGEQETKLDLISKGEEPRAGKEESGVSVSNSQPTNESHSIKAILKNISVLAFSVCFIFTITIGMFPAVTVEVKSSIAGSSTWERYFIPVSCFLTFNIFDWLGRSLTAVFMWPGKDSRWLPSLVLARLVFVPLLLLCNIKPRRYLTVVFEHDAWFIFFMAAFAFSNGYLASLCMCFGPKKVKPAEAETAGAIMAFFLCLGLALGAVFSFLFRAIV
Excerpt: Purpose. The aim of this study was to determine the potency of equilibrative nucleoside transporter 1 (ENT1) inhibitors by measuring ENT1-mediated transport is the cellular uptake assay. The human ENT1 transporter can be stably expressed in Madin-Darby Canine Kidney II (MDCKII) cells via transduction. Uridine is efficiently transported by ENT1 and is used as probe in the assay as 3H-uridine. The interaction is detected as the modulation of the initial rate of 3H-uridine transport by human ENT1 into MDCKII-ENT1-LV cells stably expressing ENT1 uptake transporter.

[2] = system: stimulated primary human T cells; assay: T cell proliferation assay (rescue of proliferation in presence of 100 uM ATP); format: cell-based
Method: Purpose. The aim of this study was to determine the potency of equilibrative nucleoside transporter 1 (ENT1) inhibitors to rescue proliferation by stimulated primary human T cells incubated in the presence of 100 uM Adenosine triphosphate (ATP) with: • Condition A: X-VIVO15 • Condition B: X-VIVO15, 2% Human Serum Albumine (HSA) and 0.1% α-1-Acid Glycoprotein (AAG)
Method. Cryopreserved purified human CD3+ T cells were thawed and washed twice with RPMI1640 medium, UltraGlutamine containing 10% hiFBS.
Cells were suspended in PBS containing 10% hiFBS. Cells were stained with CFSE by adding 2 μM solution in PBS, to get a final 1 μM CFSE solution. Cells were incubated while rotating for 5 minutes. Reaction was stopped by adding PBS with 10% FBS and cells were centrifuged for 5 minutes at 1500 rpm.
Cells were resuspended at 1.6×10^6 cells/mL, either in X-VIVO15 medium or in 4% Human Serum Albumin and 0.2% α-1-Acid Glycoprotein. 50 μL of cell suspension (8×10^4 T cells) was added to wells of sterile round-bottom 96-well plates. Cells were activated by adding 50 μL of anti-CD3 anti-CD28 coated microbeads, suspended either in XVIVO-15 medium or in 4% HSA and 0.2% α-1-Acid Glycoprotein, at a ratio of one microbead per two cells.
Serial dilutions of the ENT1 inhibitors were prepared in X-VIVO15 from 10 mM stock solutions in DMSO, and 50 μL was added to the wells.
ATP powder was diluted in X-VIVO15, and 50 μL of this compound was added to the wells to reach a final assay concentration of 100 μM. Final volume of 200 μL.
The experiments were also performed in 384 well plates—all volumes reduced by a factor of 4 ([…]) with a final volume of 50 μL.
Experiments were performed in duplicate. The cells were placed in a 37° C. humidified tissue culture incubator with 5% CO2 for 72 hours for 96 well plates, 96 hours for 384 well plates. After 72 or 96 hours, proliferation was measured determined by CFSE dilution via flow cytometry.
Results. Compounds of the invention have good ENT1 inhibitory properties.

[3] = system: human alpha 1-acid glycoprotein (AAG); assay: AAG binding assay - HPLC assay; settings: human, 100 μmol/L
Method: Purpose. […] The principle of the assay is a liquid chromatography on a human AAG protein immobilized onto a silica support for separations of compounds following their affinity to AAG protein. By measuring the retention time, the binding to AAG can be determined relatively to the references.
Method. […] Mobile Phase A: 50 mM Ammonium acetate in deionized water; Mobile Phase B: Isopropanol; Column Oven: 8° C.; PDA(nm): 230; Flow Rate (mL/min): 0.2. Test Concentration (μmol/L): 100 (from 10 mmol/L DMSO solution diluted 100 folds by 50 mM Ammonium acetate in deionized water: Isopropanol (1:1)). Generic Gradient: Time (min): 0.01; 5; 13; 14; 20.

[4] = system: human AAG protein; assay: AAG binding assay - dialysis assay; settings: 2 μM, 37° C., 4-hr
Method: Purpose. The aim of this assay is to determine the binding of a compound of interest to the human AAG protein using the robust method of dialysis.
Material. […] The dialysis Buffer (100 mM Phosphate Buffered Saline, pH 7.4) has been prepared by dissolving 28.56 g Na2HPO4.12H2O (AR grade) and 3.12 g NaH2PO4.2H2O (AR grade) into a final volume of 1000 mL ultra pure water, mixed, and adjusted the resulting solution with 1% phosphoric acid or 1 M sodium hydroxide to pH 7.4±0.1. Stored the final solution in 2-8° C. refrigerator within an expiration of a month after preparation.
Method: The dialysis membrane is soaked in dialysis buffer at 4° C. overnight. The following day the membrane is separated into two strips and then soaked in ethanol: water (20:80 v:v) for 20 mins. Then the membrane was rinsed with ultra-pure water 3-4 times. Prepared 400 μM working solution by diluting the stock solution (10 mM) with appropriate volume of DMSO. 5 μL aliquots of each working solution were spiked into 1000 μL of blank protein (matrix) to achieve a 2 μM final concentration as loading solution. The plates of loading solution were mixed well. Aliquots of 150 μL of loading solution were loaded in triplicate to the donor side of each dialysis well and dialyzed against an equal volume of dialysis buffer. […]
The concentration was calculated using the peak area ratio of analyte and internal standard.

[5] = biological target: T1, human ENT1; assay: ENT1 binding assay (competition with Sahenta-DY647 on JAR cells); design: JAR cells expressing ENT1 were bought from ATCC; host or cells: JAR cells; settings: binned IC50
Summary of the method: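 JAR cells were incubated with test compounds and the fluorescent ligand Sahenta-DY647 in competition. Plates were washed twice by centrifugation (4 min, 400 rcf, 4 °C). Binding potency was derived from the final fluorescence.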

| SMILES | IC50 [1] [nM] | IC50 ([2]; Condition A: X-VIVO15, read-out: TCell proliferation (Condition A) IC50) [nM] | IC50 ([2]; Condition B: X-VIVO15, 2% HSA and 0.1% AAG, read-out: TCell proliferation (Condition B) IC50) [nM] | retention time (rt) on immobilized human AAG column [3] [min] | Human alpha-1-acid glycoprotein (AAG) (1 mg/mL) Unbound [4] [% Unbound] | IC50 [5] [nM] |
| --- | --- | --- | --- | --- | --- | --- |
| COCCN(CCOC)c1nc(N2CCC(OC)CC2)c2nc(N(CCOC)CCOC)nc(N3CCC(OC)CC3)c2n1 [Compound 2, N2,N2,N6,N6-tetrakis(2-methoxyethyl)-4,8-bis(4-methoxypiperidin-1-yl)pyrimido[5,4-d]pyrimidine-2,6-diamine] | < 100 | 100 to 500 | 100 to 500 | 5.2 | 24.6 | 100 to 500 |
| COCCN(CCOC)c1nc(N2CCC(OC)CC2)c2nc(N(CCO)CCO)nc(N3CCC(OC)CC3)c2n1 [Compound 27, 2,2′-((6-(bis(2-methoxyethyl)amino)-4,8-bis(4-methoxypiperidin-1-yl)pyrimido[5,4-d]pyrimidin-2-yl)azanediyl)diethanol] | – | – | – | – | 89.4 | 500 to 1000 |
